How the values were obtained:
Rattus norvegicus [1] = species: Rattus norvegicus; experiment: Bmax value was determined in rat cerebral cortical membranes
Rattus norvegicus [2] = species: Rattus norvegicus; experiment: pKD value in rat cerebral cortical membranes; format: functional
[3] = biological target: T1, Gastrin/cholecystokinin type B receptor (Rattus norvegicus, UniProt P30553); experiment: Compound was tested for binding affinity against Cholecystokinin type B receptor in rat cortical membranes using L-365260 as the radioligand.; format: cell membranes
T1 sequence (P30553 whole entry): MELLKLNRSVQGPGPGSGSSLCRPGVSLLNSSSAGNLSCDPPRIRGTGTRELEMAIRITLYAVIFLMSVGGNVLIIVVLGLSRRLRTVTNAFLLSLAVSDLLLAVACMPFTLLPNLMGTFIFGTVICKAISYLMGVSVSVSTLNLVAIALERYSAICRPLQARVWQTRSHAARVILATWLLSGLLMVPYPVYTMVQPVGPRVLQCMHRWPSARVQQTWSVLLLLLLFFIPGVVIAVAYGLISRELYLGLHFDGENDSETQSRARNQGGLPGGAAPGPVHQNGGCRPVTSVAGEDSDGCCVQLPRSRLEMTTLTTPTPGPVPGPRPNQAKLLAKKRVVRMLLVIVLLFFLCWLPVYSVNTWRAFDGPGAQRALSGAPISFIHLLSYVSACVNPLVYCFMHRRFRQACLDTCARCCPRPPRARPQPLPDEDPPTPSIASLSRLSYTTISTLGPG

- Ki [3]: 23.4 nM
SMILES: O=C(O)c1cc(NC(=O)[C@H](Cc2ccccc2)NC(=O)c2cc3cc[nH]c3cc2C(=O)NCC23CC4CC(CC(C4)C2)C3)cc(C(=O)O)c1
- Bmax (Rattus norvegicus [1]): 3.61 pM/g
- pKD (Rattus norvegicus [2]): 9.48
